{
  "source": "patent US20040063660A1",
  "about": "“Diasteriomers of S-adenosyl-l-methionine and uses thereof” (priority 2000, published 2004)",
  "key": {"[1]": {"test_system": "tumor necrosis factor alpha", "conditions": "cited from earlier work"}, "muscarinic receptors": {"test_system": "muscarinic receptors", "conditions": "rats treated chronically; cited from earlier work"}, "human erythrocytes": {"test_system": "human erythrocytes", "conditions": "incubated in vitro with human erythrocytes; cited from earlier work"}, "[2]": {"test_system": "alcoholic liver cirrhosis", "conditions": "oral, vs placebo treated group; cited from earlier work"}, "primary fibromyalgia": {"test_system": "primary fibromyalgia", "conditions": "oral, short-term trial; cited from earlier work"}, "brain oxidative status": {"test_system": "brain oxidative status", "conditions": "chronically administered, rats; cited from earlier work"}, "liver glutathione": {"test_system": "liver glutathione", "conditions": "oral, patients with and without liver disease; cited from earlier work"}, "[3]": {"test_system": "total parenteral nutrition-induced cholestasis", "conditions": "rat; cited from earlier work"}, "intrahepatic cholestasis": {"test_system": "intrahepatic cholestasis", "conditions": "oral, intrahepatic cholestasis patients; cited from earlier work"}, "migraines": {"test_system": "migraines", "conditions": "human, in vivo; cited from earlier work"}, "memory": {"test_system": "memory", "conditions": "treated vs age matched untreated animals, old and young; cited from earlier work"}, "[4]": {"test_system": "peripheral occlusive arterial disease", "conditions": "patients with peripheral occlusive arterial disease; cited from earlier work"}, "Alzheimer's disease": {"test_system": "Alzheimer's disease", "conditions": "preliminary study; cited from earlier work"}, "[5]": {"test_system": "patients with major depressive episode (DSM-III)", "assay": "open, non-blind study of depression, Hamilton Rating Scale for Depression", "format": "in vivo, human", "conditions": "400 mg twice daily, 14 days", "description": "(S,S)-S-adenosyl-l-methionine p-toluene sulfonate 400 mg was administered twice daily in an open, non-blind study of 10 volunteers who gave informed consent. All patients had normal results on pre-study medical examinations, including laboratory examinations. Patients received 400 mg of (S,S)-S-adenosyl-l-methionine p-toluene sulfonate in an enteric-coated tablet form twice daily for 14 days or until remission of depression symptoms. The 10 patients satisfied the DSM-III criteria for a major depressive episode. Patients' symptoms were monitored daily using the Hamilton Rating Scale for Depression. 9 patients completed the study. […] One patient had no change at all."}, "[6]": {"conditions": "suggested; control of morning sickness during pregnancy; cited from earlier work"}, "[7]": {"test_system": "nucleolar 2-0-methyltransferase", "conditions": "vs (R,S) diasteriomer; cited from earlier work"}, "[8]": {"test_system": "S-adenosyl-l-methionine-dependent methyltransferases", "conditions": "cited from earlier work"}, "methyltransferases": {"test_system": "methyltransferases", "conditions": "other methyltransferases; cited from earlier work"}, "beta-adrenergic": {"test_system": "beta-adrenergic", "conditions": "L-form vs D-enantiomer; cited from earlier work"}, "[9]": {"conditions": "enteric-coated tablet, 9 patients completed"}},
  "data": [
    {"smiles": "C[S+](CC[C@H](N)C(=O)[O-])C[C@H]1O[C@@H](n2cnc3c(N)ncnc32)[C@H](O)[C@@H]1O", "note": "(stereo partly drawn) [S-adenosyl-l-methionine]", "values": [
      {"measurement": "amount of tumor necrosis factor alpha secreted by cells", "setting": "[1]", "result": "decrease the amount"},
      {"measurement": "damage caused by tumor necrosis factor alpha", "setting": "[1]", "result": "attenuates the damage"},
      {"measurement": "number of muscarinic receptors in the brain", "setting": "muscarinic receptors", "result": "increase the number of muscarinic receptors"},
      {"measurement": "ATP within the erythrocyte", "setting": "human erythrocytes", "result": "increases ATP within the cell"},
      {"measurement": "overall mortality and/or progression to liver transplant", "setting": "[2]", "result": 12, "unit": "%"},
      {"measurement": "improvement in primary fibromyalgia", "setting": "primary fibromyalgia", "result": "significant improvement"},
      {"measurement": "oxidative status in the brain", "setting": "brain oxidative status", "result": "enhancing anti-oxidative defenses"},
      {"measurement": "liver glutathione levels", "setting": "liver glutathione", "result": "increases in liver glutathione levels"},
      {"measurement": "cholestasis resulting from total parenteral nutrition", "setting": "[3]", "result": "able to prevent cholestasis"},
      {"measurement": "pruritus and biochemical markers of cholestasis", "setting": "intrahepatic cholestasis", "result": "improvements in both the pruritus as well as the biochemical markers of cholestasis"},
      {"measurement": "benefit in migraines", "setting": "migraines", "result": "found to be of benefit"},
      {"measurement": "performance in eight arm radical maze test versus untreated animals", "setting": "memory", "result": "out-perform"},
      {"measurement": "blood viscosity", "setting": "[4]", "result": "reduce blood viscosity"},
      {"measurement": "cognitive effect in patients with Alzheimer's disease", "setting": "Alzheimer's disease", "result": "cognitive improvement"}
    ]},
    {"smiles": "C[S@@+](CC[C@H](N)C(=O)O)C[C@H]1O[C@@H](n2cnc3c(N)ncnc32)[C@H](O)[C@@H]1O.Cc1ccc(S(=O)(=O)[O-])cc1", "note": "[(S,S)-S-adenosyl-l-methionine p-toluene sulfonate]", "values": [
      {"measurement": "side effects (reported, laboratory or physical examination)", "setting": "[5]", "result": "No side effects were noted or reported"},
      {"measurement": "patients who completed the trial and improved (Hamilton Rating Scale for Depression)", "setting": "[5]; [9]", "result": "Eight of the nine"},
      {"measurement": "patients with no change", "setting": "[5]; [9]", "result": "One"}
    ]},
    {"smiles": "O=C1CCC(N2C(=O)c3ccccc3C2=O)C(=O)N1", "note": "(single isomer, unassigned) [D-enantiomer of thalidomide, thalidomide]", "values": [
      {"measurement": "safety and effect of thalidomide enantiomer in pregnancy", "setting": "[6]", "result": "safe and effective sedative"}
    ]},
    {"smiles": "C[S@@+](CC[C@H](N)C(=O)O)C[C@H]1O[C@@H](n2cnc3c(N)ncnc32)[C@H](O)[C@@H]1O", "note": "[(S,S)-S-adenosyl-l-methionine]", "values": [
      {"measurement": "tightness of enzyme binding relative to (R,S)-S-adenosyl-l-methionine", "setting": "[7]", "result": 10, "unit": "fold"}
    ]},
    {"smiles": "C[S@@+](CC[C@@H](N)C(=O)O)C[C@H]1O[C@@H](n2cnc3c(N)ncnc32)[C@H](O)[C@@H]1O", "note": "[(R,S)-S-adenosyl-l-methionine]", "values": [
      {"measurement": "inhibition of enzyme-catalyzed transmethylation reactions", "setting": "[8]", "result": "potent inhibitor"},
      {"measurement": "binding relative to (S,S)-S-adenosyl-l-methionine", "setting": "methyltransferases", "result": "to the same extent"}
    ]},
    {"smiles": "O=C1CCC(N2C(=O)c3ccccc3C2=O)C(=O)N1", "note": "(single isomer, unassigned) [L-enantiomer, thalidomide]", "values": [
      {"measurement": "safety and effect of thalidomide enantiomer in pregnancy", "setting": "[6]", "result": "potent teratogen"}
    ]},
    {"smiles": "CC(C)NCC(O)COc1cccc2ccccc12", "note": "(centres unmarked) [propranolol]", "values": [
      {"measurement": "potency relative to the D-enantiomer", "setting": "beta-adrenergic", "result": 100, "unit": "times"}
    ]}
  ]
}
